As usually defined, the melting point is the temperature, or range, at which the solid turns liquid.

Melting point data for 62 molecules are collected here from a melting point compilation (Tetko et al.; mined from patent text by program, amines drawn as free bases though some values may be those of a salt).

Where only a bound is given, the exact number is not on record here.

In the case of `CC(C)c1nc2ccn(Cc3ccccc3)c(=O)c2n1Cc1cccc(-c2ccc(C(=N)N)cc2)c1`, the melting point is > 300 °C.

For `CC1=C(C(=O)O)Cc2ccc(C)cc21`, the melting point was 174 to 182 °C.

Molecule `O=C(CSc1c(O)cc(-c2ccccc2)oc1=O)c1ccccc1` came in with a melting point of 164 to 166 °C.

As for `COCc1cc2c(N=C=S)cccc2cn1`, the melting point was determined as 88 °C.

For the molecule `CC1(C)Nc2ccc(Br)cc2C(NC(=NC#N)Nc2ccccc2)C1O` (configuration not stated), the melting point lay within 232 to 233 °C.

Regarding `Cc1cc(O)c(S(=O)CC(C)C)c(=O)o1` (configuration not stated), the melting point was in the range of 102 to 103 °C.

As to `COC(=O)c1ccc(OCCN2CCN(c3cc(Cl)nnc3Cl)CC2)nc1`, the melting point lay in the range of 145 to 146 °C.

On to `Cc1cccc(S(=O)(=O)OS(=O)(=O)c2cccc(C)c2C)c1C`, for which the melting point fell in the range of 115 to 130 °C.

Molecule `CO/C(=C\C=C\c1cc2ccccc2o1)C(=O)O` came in with a melting point of 206 °C.

In turn, `CN1CCN(C2(CNC=O)CCCCC2)CC1` yielded a melting point of 97 to 98 °C.

For `CNc1nc(-c2cccc(NC(=O)c3ccccc3)c2)c2cc(OC)c(OC)cc2n1`, the melting point fell in the range of 146 to 148 °C.

With `CCOC(=O)c1cc2cc(F)cc(NS(=O)(=O)c3cccs3)c2[nH]1`, the melting point lay within 174 to 175 °C.

On to `CNC(=O)[C@@H]1C[C@@H](OCC2CC2)CN1S(=O)(=O)c1ccc(Cl)c(CBr)c1Cl`, for which the melting point was found to be 161 °C.

Molecule `N#CCCc1cc(F)c2ncc(C(=O)NCc3ccc(Cl)cc3)c(O)c2c1` showed a melting point of 273 to 274 °C.

`CCN1c2ncccc2C(=O)Nc2c(C(F)(F)F)cc(C)nc21` showed a melting point of 150 to 151 °C.

Turning to `C[C@@H]1Cc2ccsc2[C@H](C)N1CCNC(=O)c1ccc(C#N)cc1` (relative stereo), the melting point was 122 to 124 °C.

In the case of `FC(F)(F)c1ccc(Oc2ccc(CCNc3ncnc4nccnc34)cc2)nc1`, the melting point was 147 to 150 °C.

Turning to `CNc1nc(-c2ccc(C(F)(F)F)cc2)c2cc(C)sc2n1`, the melting point stood at 233 °C.

`N#CCSC(=S)SCc1ccc(Cl)cc1` had a melting point of 41 to 43 °C.

`COc1cccc(CNC(=O)c2nc3ccc(-c4ccccc4)cc3c(=O)[nH]2)c1` yielded a melting point of 202 to 204 °C.

For the molecule `CNC(=O)Nc1ccc(F)cc1F`, the melting point was 182 to 183 °C.

Molecule `CCCc1nc(NCCOC(C)=O)nc(N2CCOCC2)n1` displayed a melting point of 94 to 95 °C.

`CC(=O)Oc1ccc2c(c1)OC(C)(c1ccccc1)O2` (configuration not stated) returned a melting point of 87 to 87.5 °C.

For `Cc1cc(C)c(C)c(P(=O)(c2ccc(F)cc2)c2ccc(F)cc2)c1C`, the melting point lay within 171 to 173 °C.

Regarding `CCOc1cc(N)c(Cl)cc1C(=O)NC[C@H]1CN(CC2CCN(C(=O)N3CCC3)CC2)CCO1`, the melting point lay in the range of 166 to 168 °C.

In turn, `Cc1noc(C)c1-c1ccc(F)cc1OC1SCC(O)C(O)C1O` (configuration not stated) yielded a melting point of 192 °C.

`CCC([O-])=C(C(=O)OCc1ccccc1)N1C(=O)CC1[N+](CC)(CC)CC` (configuration not stated) gave a melting point of 107 °C.

With `Cc1ccc(C(=O)C2=C(N)CCCC2)cc1`, the melting point lay in the range of 130 to 131 °C.

For `O=C(CCl)N(c1ccccc1)c1cccc(F)c1`, the melting point lay in the range of 115 to 117 °C.

Molecule `C[C@@H]1Cc2cc3c(cc2C(c2ccc([N+](=O)[O-])cc2)=NN1C(=S)NN)OCO3` came in with a melting point of 140 to 142 °C.

In turn, `COC(=O)C(C)(C)Cc1ccc2oc(-c3nc(C(C)(C)C)cs3)cc2c1` returned a melting point of 42 to 43 °C.

As for `O=C(CI)c1cc(OCc2ccccc2)c(OCc2ccccc2)c(OCc2ccccc2)c1`, the melting point lay in the range of 110 to 112 °C.

As for `CCn1c(Oc2cccc(N3CCC(O)CC3)c2)nnc1[C@@H](C)NS(=O)(=O)c1ccc(Cl)c(Cl)c1`, the melting point lay within 168 to 170 °C.

`CC(C)(C)OC(=O)N1Cc2ccccc2CN1CC(O)C(Cc1ccccc1)NC(=O)OCc1ccccc1` (configuration not stated) gave a melting point of 68 to 71 °C.

On to `O=C(Oc1ccc(C(=O)OCc2ccccc2)cc1)C(=O)Oc1ccc(C(=O)OCc2ccccc2)cc1`, for which the melting point lay in the range of 106 to 108 °C.

The molecule `O=C(CCC12CCC(=O)N1C(=O)CC2)OCc1ccc(Cl)cc1` displayed a melting point of 141 to 142 °C.

Take `NC(Cc1ccccc1)C(=O)NC1CCN(c2nc3c(cc2F)c(=O)c(C(=O)O)cn3C2CC2)C1` (configuration not stated): the melting point is 216 to 219 °C.

`Nc1n[nH]c(-c2ccccc2)c1CC(=O)O` yielded a melting point of 214 to 216 °C.

As for `CCn1nc(-c2ccc(Cl)cc2[N+](=O)[O-])c2c1CCCC2=O`, the melting point came out at 184 °C.

Turning to `O=C(O)c1ccccc1Oc1cccc(F)c1`, the melting point came out at 122 °C.

Take `COc1cccc(CSCCNC(=O)c2c([N+](=O)[O-])cccc2[N+](=O)[O-])c1`: the melting point was 69 to 71 °C.

For the molecule `CCCCCCCCCCCCCCOc1ccc(C(=O)Cl)cc1Cl`, the melting point was 90 °C.

With `O=[N+]([O-])c1ccc(OC(c2c(Cl)cccc2Cl)C(F)(F)F)cc1` (configuration not stated), the melting point amounted to 108 °C.

On to `CN1C(=O)[C@H](NC(=O)/C=C/c2ccc3c(c2)OCO3)N=C(c2ccccc2)c2ccccc21`, for which the melting point lay within 143 to 145 °C.

In turn, `CCCCOC(=O)N=C(NC(=O)c1ccccc1)SC` came in with a melting point of 99 to 101 °C.

`CCN(CC)CCCNC(=O)Cn1ncc(-c2ccc(N)cc2)c1-c1ccccc1` had a melting point of 75 to 76 °C.

Take `Cc1ccc(-c2ncncc2C#N)cc1`: the melting point fell in the range of 127 to 128 °C.

As to `CCCc1c(OCCCCCCc2cccc(OC)c2OC)ccc(C(=O)O)c1O`, the melting point fell in the range of 115 to 118 °C.

On to `Nc1ncnc2c1c(-c1ccc(Oc3ccccc3)cc1)cn2C1CCC(O)CC1` (configuration not stated), for which the melting point is 199 to 200 °C.

With `COc1cc(CC(=O)O)ccc1N(C(N)=O)c1ccccc1C(F)(F)F`, the melting point lay within 218 to 220 °C.

Consider `COC(=O)C1CCC2C3CCC4CC(OS(=O)(=O)c5ccc(C)cc5)CCC4(C)C3C(=O)CC12C` (configuration not stated), for which the melting point lay in the range of 158 to 160 °C.

`COc1ccc(C(=O)c2cc(-c3ccncc3)c(N3CCOCC3)s2)cc1`: the melting point is 193 °C.

The molecule `CC(C)C(=O)O[C@H]1[C@H](C)OC(=O)[C@@H](NC(=O)OC(C)(C)C)COC(=O)[C@@H]1Cc1ccc(F)cc1` showed a melting point of 58 to 66 °C.

Turning to `CCOC(=O)Cn1nc(-c2ccc(OC)cc2)cc(C(=O)OCC)c1=O`, the melting point was 77.1 to 77.8 °C.

Molecule `CS(=O)(=O)c1ccc(-c2cnn(-c3cccc(Br)c3)c(=O)c2-c2ccc(F)cc2)cc1` gave a melting point of 210 to 212 °C.

Regarding `COC1(OC)SC=C(C)NC1=O`, the melting point is 86 to 88 °C.

In the case of `CC(=O)Nc1ccc(S(=O)(=O)NCC2CCN(C[C@H]3COc4ccc(Cl)cc4O3)CC2)cc1`, the melting point lay within 173 to 176 °C.

The molecule `CN1C(=O)C(c2ccncc2)(c2cccc(O)c2)N=C1N` (configuration not stated) returned a melting point of 245 to 247 °C.

`COc1ccc2c(N(C)CCc3ccccn3)noc2c1` had a melting point of 152 to 153 °C.

Take `COc1ccc(C(Cl)=C(C#N)c2ccc(OC)cc2)cc1`: the melting point was 140 to 142 °C.

`CN1C(=O)CCC2(C)c3ccc(Sc4ccc(Cl)cc4)cc3CCC12` (single isomer, unassigned; (+)): the melting point was 122 to 124 °C.

As to `COc1ccc(CCNC(=O)C=Cc2ccc(C)cc2C)cc1S(N)(=O)=O`, the melting point came out at 202 °C.
